Type in all cases: functional
The subject of test [1] is Enterococcus faecalis. Description: Antimicrobial activity against recombination-deficient Enterococcus faecalis JH2-2 recA harboring nucleotides at position 2576 in rrlA 2576T, rrlB 2576G, rrlC 2576T and rrlD 2576T after 10, 11 passages under Linezolid selective pressure by agar dilution method.
In test [2] the test system is Enterococcus faecalis. The test is described as follows: Antimicrobial activity against Enterococcus faecalis JH2-2 harboring nucleotides at position 2576 in rrlA 2576T, rrlB 2576G, rrlC 2576T and rrlD 2576T after 9, 10, 11 passages under Linezolid selective pressure by agar dilution method. Background: In agar dilution the substance is mixed into plates at graded concentrations.

Test [3] concerns Enterococcus faecalis. The test is described as follows: Antimicrobial activity against Enterococcus faecalis JH2-2 harboring nucleotides at position 2576 in rrlA 2576T, rrlB 2576G, rrlC 2576G/T and rrlD 2576T after 6, 8 passages under Linezolid selective pressure by agar dilution method.

Molecules are shown by their SMILES. Values after ≈ are worked out from the molar mass of the structure shown.

The results in this text go back to ChEMBL document CHEMBL1649577, “Influence of recombination on development of mutational resistance to linezolid in Enterococcus faecalis JH2-2” (2009).

As a reminder, the MIC is the least concentration at which growth counts as inhibited. Turning to `CC(=O)NC[C@H]1CN(c2ccc(N3CCOCC3)c(F)c2)C(=O)O1` [LINEZOLID], the figures for the MIC with Enterococcus faecalis [1], against Enterococcus faecalis [2] and in the test with Enterococcus faecalis [3] were 32 µg/mL, 64 µg/mL (≈ 190 µM) and 32 µg/mL (≈ 94.9 µM), respectively.
